Experiments:
[1] = test system: all L. starkeyi strains and Lipomyces species; test: Hygromycin B growth suppression on YPD agar plates; assay type: cell-based, Lipomyces sp.; conditions: 30° C., all strains and species except L. suomiensis NRRL Y-17356, FIG. 4
From the text: (§1) For effective selection of transgene expression in Lipomyces strains, several antibiotics were chosen to examine their effects on Lipomyces growth on yeast synthetic complete (SC, Sunrise Science Products, San Diego, Calif.) and yeast extract-peptone-detrose (YPD) medium plates, which included phosphinothricin ammonium (basta), geneticin (G418), hygromycin B (hyg), pyrithiamine and Zeocin (Zeo). Two day old Lipomyces cells grown in YPD liquid culture were used for evaluation of the antibiotic selection on the agar plates of SC or YPD. The original cells were diluted sequentially in 1:10 ratio with dH2O for four times and 10 μl cells from original culture and each dilution were spotted onto the proper agar medium plates. The plates were incubated in 30° C. incubator for 3 days. The inhibition effects of selected antibiotics on the selected plate were documented with Nikon D300s SLR digital camera (Nikon Inc., Melville, N.Y.) or the stereomicroscope-Leica MZ16 (Leica Microsystems, Buffalo Grove, Ill.).
(§2) About 5 to 10 colonies of 4 day old Lipomyces strains (except L. lipofer NRRL Y-11555 that required additional 4 days growth and more colonies due to its slow growth) grown on YPD medium agar plates were transferred into a 50 ml YPD liquid flask culture and grown at 30° C. and 200 rpm for 50 hrs. […]

[2] = test system: L. lipofer (NRRL Y-11555); test: Antibiotic growth suppression on SC medium agar plates; assay type: cell-based, Lipomyces lipofer; conditions: 100 mg/l, 30° C., FIG. 3
From the text: as §1, §2

[3] = test system: parent Lipomyces strains (Y-); test: Hygromycin resistance of parent Lipomyces cells, 1/10 series dilutions on YPD agar plates; assay type: cell-based, Lipomyces sp.; conditions: 10 or 25 mg/l hygromycin B with 250 mg/L cefotaxime, FIG. 10
Experimental: The hygromycin resistance of parent and transformed Lipomyces cells in a 1/10 series dilutions were compared on the same YPD agar plates with either 10 or 25 mg/l hygromycin B (hyg10 or hyg25, respectively) and 250 mg/L cefotaxime. […] The integration of pTef1-hph transgene expression cassette (FIG. 11A) was also confirmed by Southern blotting analysis which indicated 1 to 2 copies of the gene were inserted (FIG. 11B).

Lipomyces strains = test: Hygromycin B inhibition on Aspergillus minimal medium; assay type: cell-based, Lipomyces sp.; conditions: 10 mg/l
[4] = test system: L. suomiensis strain NRRL Y-17356; test: Hygromycin B growth suppression on YPD agar plates; assay type: cell-based, Lipomyces suomiensis; conditions: 30° C., L. suomiensis NRRL Y-17356, FIG. 4
From the text: as §1, §2

[5] = test system: L. doorenjongii (NRRL Y-27504); test: Antibiotic growth suppression on SC medium agar plates; assay type: cell-based, Lipomyces doorenjongii; conditions: 100 mg/l, 30° C., FIG. 3
From the text: as §1, §2

L. starkeyi = test: Antibiotic growth suppression on yeast synthetic complete (SC) medium agar plates; assay type: cell-based, Lipomyces starkeyi; conditions: 30° C.
From the text: as §1, §2

## CN[C@H]1C[C@@H](N)[C@H](O)[C@@H](O[C@@H]2O[C@H](CO)[C@H](O)[C@@H]3OC4(O[C@H]23)O[C@H]([C@@H](N)CO)[C@H](O)[C@H](O)[C@H]4O)[C@@H]1O (some centres unmarked) [hygromycin B]
[1]
  concentration sufficient to suppress the growth: 2.5 mg/L
[2]
  growth suppression of L. lipofer (NRRL Y-11555): effectively suppress the growth
[3]
  growth of parent strains under hygromycin selection: severely suppressed
Lipomyces strains
  inhibition of Lipomyces strains: effective inhibition
[4]
  concentration needed to suppress the growth: at least 10 mg/l
[5]
  growth suppression of L. doorenjongii (NRRL Y-27504): effectively suppress the growth
L. starkeyi; 100 mg/l hygromycin B, FIG. 2
  growth selection (growth suppression) of L. starkeyi: effective
L. starkeyi; 100 mg/l, FIG. 3
  growth suppression of three other L. starkeyi strains (NRRL Y-27493, NRRL Y-27494, NRRL Y-27495): effectively suppress the growth
